The results in this text go back to patent US10093670B2, “Azabenzimidazole derivative having AMPK-activating activity” (Shionogi & Co., Ltd., priority 2011, dated 2018).

The test addresses T1, human AMPK α1β1γ1 enzyme (Homo sapiens, UniProt Q13131+Q9Y478).
T1 construct: purchased Carna Biosciences, Inc
The experiment in a line: Evaluation of AMPK activator, Test Example 1 (mobility-shift kinase assay, FL-Peptide 7). In kind it is biochemical. The note with it: for EC150 (compound concentration showing 150% relative to the control (100%)): human AMPK α1β1γ1, 25° C., 2 hours, 0.2 mM ATP final; for Emax: read-out: Emax (maximum rate of increase in activity within the measurement range). The procedure: The obtained liquid was left to stand for 10 minutes.
The obtained liquid was allowed to react at 25° C. for 2 hours, and 10 μl of 20 mM EDTA was then added thereto to stop the reaction.
To detect phosphorylated fluorescent substrates, the reaction liquid was applied to a measuring device, LabChip EZ Reader II manufactured by Caliper Life Science, Inc., for detecting fluorescence by using differences in mobility due to differences in charge. The setting conditions for the device were pressure, −1.5 PSI; upstream voltage, −2250 V; downstream voltage, −400 V; post sample buffer sip time, 40 seconds; final delay, 120 seconds; and peak order, Product First.
A conversion rate was calculated from the peak heights of the resulting substrate and product. The conversion rate when not containing a compound was used as a control, and a concentration dependent curve was made by plotting the rate of increase in activity to the control at each concentration of a compound.

Setting [1] is: human AMPK α1β1γ1, relative to control (100%).

Molecules are shown by their SMILES.

T1 sequence (Q13131 10-559 limits assumed): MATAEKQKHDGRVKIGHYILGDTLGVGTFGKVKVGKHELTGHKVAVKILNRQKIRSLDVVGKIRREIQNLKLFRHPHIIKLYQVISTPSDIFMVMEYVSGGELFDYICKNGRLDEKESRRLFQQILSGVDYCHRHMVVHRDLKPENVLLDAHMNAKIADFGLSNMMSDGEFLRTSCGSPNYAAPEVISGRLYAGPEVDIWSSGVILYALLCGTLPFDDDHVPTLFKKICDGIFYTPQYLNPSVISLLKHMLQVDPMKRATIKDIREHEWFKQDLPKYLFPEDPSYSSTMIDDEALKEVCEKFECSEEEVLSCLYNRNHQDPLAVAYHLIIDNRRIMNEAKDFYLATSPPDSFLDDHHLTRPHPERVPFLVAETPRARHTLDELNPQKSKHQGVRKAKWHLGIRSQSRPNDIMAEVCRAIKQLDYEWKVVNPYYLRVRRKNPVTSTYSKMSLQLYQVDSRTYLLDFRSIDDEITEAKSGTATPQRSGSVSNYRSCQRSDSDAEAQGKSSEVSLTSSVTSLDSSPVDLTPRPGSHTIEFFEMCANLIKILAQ
T1 sequence (Q9Y478 whole entry): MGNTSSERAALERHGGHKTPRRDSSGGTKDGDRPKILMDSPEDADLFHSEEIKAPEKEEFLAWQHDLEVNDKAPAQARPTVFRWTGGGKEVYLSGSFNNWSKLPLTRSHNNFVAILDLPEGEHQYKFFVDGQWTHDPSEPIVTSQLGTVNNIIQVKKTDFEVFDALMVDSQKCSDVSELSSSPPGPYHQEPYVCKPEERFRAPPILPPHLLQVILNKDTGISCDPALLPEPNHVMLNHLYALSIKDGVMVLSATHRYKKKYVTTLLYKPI
T1 sequence (P54619 whole entry partner): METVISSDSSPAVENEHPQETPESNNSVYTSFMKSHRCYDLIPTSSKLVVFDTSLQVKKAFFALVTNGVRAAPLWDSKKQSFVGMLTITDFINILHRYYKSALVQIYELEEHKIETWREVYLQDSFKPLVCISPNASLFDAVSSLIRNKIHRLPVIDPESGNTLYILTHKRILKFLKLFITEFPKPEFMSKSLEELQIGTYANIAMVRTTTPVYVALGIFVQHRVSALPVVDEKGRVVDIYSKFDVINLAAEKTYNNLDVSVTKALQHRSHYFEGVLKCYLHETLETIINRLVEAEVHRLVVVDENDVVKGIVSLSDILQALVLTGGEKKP

Usually Emax stands for the maximal effect, on the per cent scale that the assay sets. For the molecule `CCC(Oc1nc2nc(-c3ccc(N4CCOCC4)cc3)c(Cl)cc2[nH]1)C(=O)O` (centres unmarked) [Compound I-3-11], the “EC150 (compound concentration showing 150% relative to the control (100%))” value is listed as 61 nM. Further, the maximal effect (Emax) under setting [1] amounted to 240%.
Take `Clc1cc2[nH]c(OC3CCOCC3)nc2nc1-c1ccc(N2CCOCC2)cc1` [Compound I-3-12]: the “EC150 (compound concentration showing 150% relative to the control (100%))” value came out at 21 nM. Moreover, the maximal response (Emax) under setting [1] turned out to be 211%.
For `CC(Oc1nc2nc(-c3ccc(C4=CCC(C(=O)O)CC4)cc3)c(Cl)cc2[nH]1)C(N)=O` (centres unmarked) [Compound I-3-14], in that order: 130 nM and 232%.
The like results for `CC(C)(C(N)=O)C1CCC(Oc2nc3nc(-c4ccc(N5CCOCC5)cc4)c(Cl)cc3[nH]2)CC1` (centres unmarked) [Compound I-3-25] were, in that order, 230 nM and 210%.
The like results for `O=C(O)C1CC=C(c2ccc(-c3nc4nc(OC5CCOCC5)[nH]c4cc3Cl)cc2)CC1` (centres unmarked) [Compound I-3-26] were, in that order, 68 nM and 221%.
For the molecule `CC(C)C(Oc1nc2nc(-c3ccc(N4CCOCC4)cc3)c(Cl)cc2[nH]1)C(=O)O` (centres unmarked) [Compound I-3-27], the “EC150 (compound concentration showing 150% relative to the control (100%))” value is recorded as 280 nM. In addition, the Emax under setting [1] turned out to be 228%.
For `CC(=O)N1CC=C(c2ccc(-c3nc4nc(OC5CCC(C(C)(C)C(=O)O)CC5)[nH]c4cc3Cl)cc2)CC1` (centres unmarked) [Compound I-3-39], in that order: 5.1 nM and 286%.
As to `CC(C)(C(=O)O)C1CCC(Oc2nc3nc(-c4ccc(N5CCCC5)cc4)c(Cl)cc3[nH]2)CC1` (centres unmarked) [Compound I-3-44], the “EC150 (compound concentration showing 150% relative to the control (100%))” value is on record as 7.6 nM. Further, the maximum response (Emax) under setting [1] is 275%.
`CCC(Oc1nc2nc(-c3ccc(C4=CCC(NC(C)=O)CC4)cc3)c(Cl)cc2[nH]1)C(N)=O` (centres unmarked) [Compound I-3-50]: the “EC150 (compound concentration showing 150% relative to the control (100%))” value was found to be 160 nM. In addition, under setting [1], the Emax is 228%.
On to `CC(C)(C(=O)O)[C@]1(O)CC[C@@H](Oc2nc3nc(-c4ccc(N5CCCCC5)cc4)c(Cl)cc3[nH]2)CC1` [Compound I-3-51], for which the “EC150 (compound concentration showing 150% relative to the control (100%))” value is given as 4.5 nM. The Emax under setting [1] is 338%.
As for `CN1CCc2cc(-c3nc4nc(O[C@H]5CC[C@](O)(C(C)(C)C(=O)O)CC5)[nH]c4cc3Cl)ccc21` [Compound I-3-52], the “EC150 (compound concentration showing 150% relative to the control (100%))” value worked out at 2.3 nM. Under setting [1], the Emax came to 400%.
The like results for `O=C(O)C1CCC(Oc2nc3nc(-c4ccc(N5CCOCC5)cc4)c(Cl)cc3[nH]2)C1` (centres unmarked) [Compound I-3-53] were, in that order, 51 nM and 261%.
With `CC(C)(C(=O)O)[C@]1(O)CC[C@@H](Oc2nc3nc(-c4c(F)cc(N5CCOCC5)cc4F)ccc3[nH]2)CC1` [Compound I-3-62], the “EC150 (compound concentration showing 150% relative to the control (100%))” value is 22 nM. Under setting [1], the maximal effect (Emax) is 333%.
The like results for `CC(=O)NC1CCN(c2ccc(-c3nc4nc(OC5CCC(C(C)(C)C(=O)O)CC5)[nH]c4cc3Cl)cc2)CC1` (centres unmarked) [Compound I-3-65] were, in that order, 24 nM and 233%.
The like results for `CC(C)(C(=O)O)[C@]1(O)CC[C@@H](Oc2nc3nc(-c4ccc(-c5ccccc5)cc4)c(Cl)cc3[nH]2)CC1` [Compound I-3-66] were, in that order, 3.4 nM and 389%.
`CCC(Oc1nc2nc(-c3ccc(N4CCCC4)cc3)c(Cl)cc2[nH]1)c1cc(O)no1` (centres unmarked) [Compound I-3-69]: the “EC150 (compound concentration showing 150% relative to the control (100%))” value is reported as 60 nM. For the same molecule, the Emax under setting [1] was determined as 259%.
For `O=C(O)[C@]1(O)CC[C@@H](Oc2nc3nc(-c4ccc(N5CCOCC5)cc4)c(Cl)cc3[nH]2)CC1` [Compound I-3-75], in that order: 47 nM and 236%.
Consider `CC(C)(C(=O)O)[C@]1(O)CC[C@@H](Oc2nc3nc(-c4ccc(N5CCOCC5)cc4)c(Cl)cc3[nH]2)CC1` [Compound I-3-83], for which the “EC150 (compound concentration showing 150% relative to the control (100%))” value is 24 nM. For the same molecule, the “Emax (maximum rate of increase in activity within the measurement range)” value under setting [1] was found to be 278%.
With `CN(C)C(=O)N1CC=C(c2ccc(-c3nc4nc(O[C@H]5CC[C@H](C(C)(C)C(=O)O)CC5)[nH]c4cc3Cl)cc2)CC1` [Compound I-3-85], the “EC150 (compound concentration showing 150% relative to the control (100%))” value was determined as 4.9 nM. Further, the maximum response (Emax) under setting [1] was determined as 276%.
`CC(C)(CO)C1CCC(Oc2nc3nc(-c4ccc(N5CCOCC5)cc4)c(Cl)cc3[nH]2)CC1` (centres unmarked) [Compound I-3-89]: under setting [1], the Emax came out at 236%.
On to `CN(C)C(=O)[C@H]1C[C@@H](Oc2nc3nc(-c4ccc(-c5ccc(C(=O)O)cc5)cc4)c(Cl)cc3[nH]2)C1` [Compound I-3-91], for which the “EC150 (compound concentration showing 150% relative to the control (100%))” value was determined as 21 nM. For the same molecule, the Emax under setting [1] was found to be 287%.
For `CC(=O)N1CC=C(c2ccc(-c3nc4nc(OC5CCC(C(C)(C)CO)CC5)[nH]c4cc3Cl)cc2)CC1` (centres unmarked) [Compound I-3-92], in that order: 23 nM and 303%.
The like results for `CC(C)(C(=O)O)C1CCC(Oc2nc3nc(-c4ccc(C5=CCOCC5)cc4)c(Cl)cc3[nH]2)CC1` (centres unmarked) [Compound I-3-93] were, in that order, 9.6 nM and 301%.
The like results for `CC(C)(C(=O)O)[C@H]1CC[C@H](Oc2nc3nc(-c4ccc(-c5ccccc5O)cc4)c(Cl)cc3[nH]2)CC1` [Compound I-3-97] were, in that order, 0.68 nM and 343%.
With `O=C(c1ccc(-c2ccc(-c3nc4nc(O[C@H]5CC[C@H](C(=O)O)CC5)[nH]c4cc3Cl)cc2)cc1)N1CCC(O)CC1` [Compound I-3-104], the “EC150 (compound concentration showing 150% relative to the control (100%))” value was determined as 21 nM. Also, under setting [1], the Emax was determined as 203%.
For `CC(C)(C(=O)O)[C@H]1CC[C@H](Oc2nc3nc(-c4ccc(-c5ccc(C(=O)N6CCC(O)CC6)cc5)cc4)c(Cl)cc3[nH]2)CC1` [Compound I-3-106], in that order: 9.1 nM and 311%.
`CC(C)(C(=O)O)[C@H]1CC[C@H](Oc2nc3nc(-c4ccc(-c5ccc(C(=O)N6CCOCC6)cc5)cc4)c(Cl)cc3[nH]2)CC1` [Compound I-3-108]: the “EC150 (compound concentration showing 150% relative to the control (100%))” value is listed as 8.2 nM. In addition, the Emax under setting [1] was found to be 291%.
The like results for `O=C(O)c1ccc(-c2ccc(-c3nc4nc(O[C@H]5C[C@@H](C(=O)N6CC(O)C6)C5)[nH]c4cc3Cl)cc2)cc1` [Compound I-3-115] were, in that order, 23 nM and 260%.
The like results for `CC(C)(C(=O)O)[C@H]1CC[C@H](Oc2nc3nc(-c4ccc(-c5ccc(C(N)=O)cc5)cc4)c(Cl)cc3[nH]2)CC1` [Compound I-3-119] were, in that order, 1.6 nM and 300%.
On to `O=C(O)C1([C@]2(O)CC[C@@H](Oc3nc4nc(-c5ccc(N6CCOCC6)cc5)c(Cl)cc4[nH]3)CC2)CCC1` [Compound I-3-123], for which the “EC150 (compound concentration showing 150% relative to the control (100%))” value is reported as 18 nM. Further, the Emax under setting [1] worked out at 243%.
